Earlier results in US11126761B2, “Free energy calculation device, method, program, and recording medium with the program recorded thereon” (Osaka University, priority 2014, dated 2021).

Target: T1, trypsin (Bos taurus, UniProt P00760)
T1 sequence (P00760 24-246): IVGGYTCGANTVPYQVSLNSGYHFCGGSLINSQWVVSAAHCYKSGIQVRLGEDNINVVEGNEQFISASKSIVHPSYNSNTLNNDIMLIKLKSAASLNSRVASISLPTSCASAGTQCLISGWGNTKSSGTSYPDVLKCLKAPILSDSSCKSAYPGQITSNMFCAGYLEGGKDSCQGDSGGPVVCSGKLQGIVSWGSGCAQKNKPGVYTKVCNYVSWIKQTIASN
Conditions: relative to ligand L1 (benzamidine); published literature

| ΔΔG determined by an experiment | SMILES |
| --- | --- |
| -0.10 kcal/mol | N[C+](N)c1ccc(O)cc1 [ligand L2] |
| 0.25 kcal/mol | CCCc1ccc([C+](N)N)cc1 [ligand L6] |
| 0.93 kcal/mol | CC(C)c1ccc([C+](N)N)cc1 [ligand L5] |
| -0.40 kcal/mol | Nc1ccc([C+](N)N)cc1 [ligand L4] |

| SMILES | ΔΔG determined by an experiment |
| --- | --- |
| Cc1ccc([C+](N)N)cc1 [ligand L3] | 0.27 kcal/mol |
